# System: OVCAR-8 complex spheroid, growth inhibition
# Assay: Anticancer human tumor OVCAR-8 cell line growth inhibition [Asc];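 also: spheroids exposed to agents for 7 days before readout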;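 as to viability, T/C: percent viability relative to DMSO vehicle wells taken as 100%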
# Details: for IC50: curve of first compound; for viability, T/C: stronger effect = lower value
# In short: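 Complex solid-tumor spheroids incorporating human endothelial and mesenchymal stem cells received single agents or combinations over half-log dilution ranges anchored to clinical Cmax.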
structure (smiles),measurement,setting,value
C#Cc1c(F)ccc2cc(O)cc(-c3ncc4c(N5CC6CCC(C5)N6)nc(OCC56CCCN5CC(F)C6)nc4c3F)c12 (centres undefined) + CCN1C(C(=O)NC23CCC(C(=O)O)(CC2)CC3)C(c2cccc(Cl)c2F)C2(C(=O)Nc3cc(Cl)ccc32)C12CCCCC2,IC50,second compound 0.00949 µM,> 10 µM
same,IC50,second compound 0.03 µM,> 10 µM
same,IC50,second compound 0.0949 µM,> 10 µM
same,IC50,second compound 0.3 µM,> 10 µM
same,IC50,second compound 0.949 µM,> 10 µM
same,IC50,second compound 3 µM,> 10 µM
same,"viability, T/C","second compound 0.00949 µM, first compound 0.0316 µM",91.7%
same,"viability, T/C","second compound 0.00949 µM, first compound 0.1 µM",86.9%
same,"viability, T/C","second compound 0.00949 µM, first compound 0.316 µM",93.3%
same,"viability, T/C","second compound 0.00949 µM, first compound 1 µM",95.2%
same,"viability, T/C","second compound 0.00949 µM, first compound 3.16 µM",95.5%
same,"viability, T/C","second compound 0.00949 µM, first compound 10 µM",89.3%
same,"viability, T/C","second compound 0.03 µM, first compound 0.0316 µM",114%
same,"viability, T/C","second compound 0.03 µM, first compound 0.1 µM",96.3%
same,"viability, T/C","second compound 0.03 µM, first compound 0.316 µM",85.1%
same,"viability, T/C","second compound 0.03 µM, first compound 1 µM",97.3%
same,"viability, T/C","second compound 0.03 µM, first compound 3.16 µM",90.1%
same,"viability, T/C","second compound 0.03 µM, first compound 10 µM",91.5%
same,"viability, T/C","second compound 0.0949 µM, first compound 0.0316 µM",93.2%
same,"viability, T/C","second compound 0.0949 µM, first compound 0.1 µM",82.2%
same,"viability, T/C","second compound 0.0949 µM, first compound 0.316 µM",94.4%
same,"viability, T/C","second compound 0.0949 µM, first compound 1 µM",84%
same,"viability, T/C","second compound 0.0949 µM, first compound 3.16 µM",101%
same,"viability, T/C","second compound 0.0949 µM, first compound 10 µM",101%
same,"viability, T/C","second compound 0.3 µM, first compound 0.0316 µM",79.5%
same,"viability, T/C","second compound 0.3 µM, first compound 0.1 µM",86.8%
same,"viability, T/C","second compound 0.3 µM, first compound 0.316 µM",84.2%
same,"viability, T/C","second compound 0.3 µM, first compound 1 µM",91.7%
same,"viability, T/C","second compound 0.3 µM, first compound 3.16 µM",96.5%
same,"viability, T/C","second compound 0.3 µM, first compound 10 µM",98.2%
same,"viability, T/C","second compound 0.949 µM, first compound 0.0316 µM",93.5%
same,"viability, T/C","second compound 0.949 µM, first compound 0.1 µM",107%
same,"viability, T/C","second compound 0.949 µM, first compound 0.316 µM",90.8%
same,"viability, T/C","second compound 0.949 µM, first compound 1 µM",92.3%
same,"viability, T/C","second compound 0.949 µM, first compound 3.16 µM",103%
same,"viability, T/C","second compound 0.949 µM, first compound 10 µM",107%
same,"viability, T/C","second compound 3 µM, first compound 0.0316 µM",108%
same,"viability, T/C","second compound 3 µM, first compound 0.1 µM",93%
same,"viability, T/C","second compound 3 µM, first compound 0.316 µM",105%
same,"viability, T/C","second compound 3 µM, first compound 1 µM",115%
same,"viability, T/C","second compound 3 µM, first compound 3.16 µM",110%
same,"viability, T/C","second compound 3 µM, first compound 10 µM",112%
Cc1nc(N2CCC3(CC2)COC(C)C3N)c(CO)nc1Sc1ccnc(N)c1Cl (centres undefined) + CCN1C(C(=O)NC23CCC(C(=O)O)(CC2)CC3)C(c2cccc(Cl)c2F)C2(C(=O)Nc3cc(Cl)ccc32)C12CCCCC2,IC50,second compound 0.00949 µM,> 3 µM
same,IC50,second compound 0.03 µM,> 3 µM
same,IC50,second compound 0.0949 µM,> 3 µM
same,IC50,second compound 0.3 µM,> 3 µM
same,IC50,second compound 0.949 µM,> 3 µM
same,IC50,second compound 3 µM,> 3 µM
same,"viability, T/C","second compound 0.00949 µM, first compound 0.00949 µM",101%
same,"viability, T/C","second compound 0.00949 µM, first compound 0.03 µM",122%
same,"viability, T/C","second compound 0.00949 µM, first compound 0.0949 µM",152%
same,"viability, T/C","second compound 0.00949 µM, first compound 0.3 µM",216%
same,"viability, T/C","second compound 0.00949 µM, first compound 0.949 µM",263%
same,"viability, T/C","second compound 0.00949 µM, first compound 3 µM",209%
same,"viability, T/C","second compound 0.03 µM, first compound 0.00949 µM",108%
same,"viability, T/C","second compound 0.03 µM, first compound 0.03 µM",139%
same,"viability, T/C","second compound 0.03 µM, first compound 0.0949 µM",142%
same,"viability, T/C","second compound 0.03 µM, first compound 0.3 µM",204%
same,"viability, T/C","second compound 0.03 µM, first compound 0.949 µM",241%
same,"viability, T/C","second compound 0.03 µM, first compound 3 µM",221%
same,"viability, T/C","second compound 0.0949 µM, first compound 0.00949 µM",103%
same,"viability, T/C","second compound 0.0949 µM, first compound 0.03 µM",117%
same,"viability, T/C","second compound 0.0949 µM, first compound 0.0949 µM",154%
same,"viability, T/C","second compound 0.0949 µM, first compound 0.3 µM",200%
same,"viability, T/C","second compound 0.0949 µM, first compound 0.949 µM",244%
same,"viability, T/C","second compound 0.0949 µM, first compound 3 µM",228%
same,"viability, T/C","second compound 0.3 µM, first compound 0.00949 µM",115%
same,"viability, T/C","second compound 0.3 µM, first compound 0.03 µM",126%
same,"viability, T/C","second compound 0.3 µM, first compound 0.0949 µM",153%
same,"viability, T/C","second compound 0.3 µM, first compound 0.3 µM",221%
same,"viability, T/C","second compound 0.3 µM, first compound 0.949 µM",251%
same,"viability, T/C","second compound 0.3 µM, first compound 3 µM",232%
same,"viability, T/C","second compound 0.949 µM, first compound 0.00949 µM",106%
same,"viability, T/C","second compound 0.949 µM, first compound 0.03 µM",101%
same,"viability, T/C","second compound 0.949 µM, first compound 0.0949 µM",175%
same,"viability, T/C","second compound 0.949 µM, first compound 0.3 µM",229%
same,"viability, T/C","second compound 0.949 µM, first compound 0.949 µM",223%
same,"viability, T/C","second compound 0.949 µM, first compound 3 µM",214%
same,"viability, T/C","second compound 3 µM, first compound 0.00949 µM",125%
same,"viability, T/C","second compound 3 µM, first compound 0.03 µM",140%
same,"viability, T/C","second compound 3 µM, first compound 0.0949 µM",171%
same,"viability, T/C","second compound 3 µM, first compound 0.3 µM",214%
same,"viability, T/C","second compound 3 µM, first compound 0.949 µM",192%
same,"viability, T/C","second compound 3 µM, first compound 3 µM",169%
